Source: article PMC3490489 (Clinical cancer research : an official journal of the …, 2012)
Where two headings read alike, the source gives them in different places.

How the values were obtained:
[1] = cited from earlier work
UGT1A9 [2] = target: T1, UGT1A9 (Homo sapiens, UniProt O60656); experiment: Inhibition of UGT1A9-mediated sorafenib glucuronidation by azole antifungals; type: biochemical
T1 sequence (O60656 26-530): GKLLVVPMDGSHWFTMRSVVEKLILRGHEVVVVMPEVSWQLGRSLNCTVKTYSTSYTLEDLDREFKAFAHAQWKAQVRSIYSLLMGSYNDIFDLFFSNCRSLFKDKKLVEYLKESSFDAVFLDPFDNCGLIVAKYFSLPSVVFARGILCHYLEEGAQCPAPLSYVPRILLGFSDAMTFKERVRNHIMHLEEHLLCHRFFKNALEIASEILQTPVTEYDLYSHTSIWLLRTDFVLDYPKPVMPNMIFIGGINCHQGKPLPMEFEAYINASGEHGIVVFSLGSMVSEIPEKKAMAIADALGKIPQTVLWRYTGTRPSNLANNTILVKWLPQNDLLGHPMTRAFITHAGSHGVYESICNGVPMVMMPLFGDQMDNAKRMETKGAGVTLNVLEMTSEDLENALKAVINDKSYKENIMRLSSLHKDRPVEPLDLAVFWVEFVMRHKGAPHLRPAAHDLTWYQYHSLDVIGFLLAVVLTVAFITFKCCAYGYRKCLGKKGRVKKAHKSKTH

[3] = type: in vivo, human
AML cell lines = conditions: cited from earlier work
[4] = test system: human liver microsomes (HLM); experiment: Sorafenib N-oxide formation in microsomes from human liver samples; type: in vitro ADME; conditions: 10 to 15 year age group, sorafenib 10 µM, 60 min
UGT1A9 [5] = target: T1, UGT1A9; conditions: panel of purified human UGT enzymes
not read = substrate: CNC(=O)c1cc(Oc2ccc(NC(=O)Nc3ccc(Cl)c(C(F)(F)F)c3)cc2)ccn1; experiment: not read; conditions: other: purified human UGT1A9

For CCNCCNC(=O)c1c(C)[nH]c(/C=C2\C(=O)Nc3ccc(F)cc32)c1C [N-desethyl-sunitinib], the “Share of total pharmacologic activity accounted for by the active metabolite” value ([1]; cancer patients given sunitinib) is listed as 30–50%.

In the case of CC(=O)N1CCN(c2ccc(OCC3COC(Cn4ccnc4)(c4ccc(Cl)cc4Cl)O3)cc2)CC1 (stereo not drawn) [ketoconazole, reference compound], the “Effect of ketoconazole on sorafenib plasma clearance” value ([1]; healthy subjects) is listed as “no effect on sorafenib plasma clearance” and the Ki (UGT1A9 [2]) is listed as 2200 nM.

In the case of CC[C@@H]([C@H](C)O)n1ncn(-c2ccc(N3CCN(c4ccc(OC[C@@H]5CO[C@@](Cn6cncn6)(c6ccc(F)cc6F)C5)cc4)CC3)cc2)c1=O [posaconazole, reference compound], the “Effect on sorafenib N-oxide production in vivo” value (children given sorafenib concurrent with the azole) is reported as “reduced N-oxide production to negligible levels” and the “Inhibition of sorafenib glucuronidation in vitro” value (UGT1A9 [2]) is reported as “weak inhibitors of sorafenib glucuronidation”.

With CNC(=O)c1cc(Oc2ccc(NC(=O)Nc3ccc(Cl)c(C(F)(F)F)c3)cc2)cc[n+]1[O-] [sorafenib N-oxide] the “Mean sorafenib N-oxide metabolite ratio (metabolite Css,ave / sorafenib Css,ave)” value ([3]; all patients) was ~ 0.30, the “CV% of sorafenib N-oxide metabolite ratio” value ([3]; boys greater than 10 years) was 11% and the “CV% of sorafenib N-oxide metabolite ratio” value ([3]; boys ≤ 10 years) was 39%. The “Conversion to sorafenib N-oxide” value ([3]; boys ≤ 10 years) was 40%, the “Sorafenib N-oxide metabolite ratio” value ([3]; boys ≤ 10 years) was 0.40±0.15 and the “Mean conversion to sorafenib N-oxide” value ([3]; children 1 to 19 years) was 27%. For the same molecule, the “N-oxide metabolite ratio, boys versus girls” value ([3]; children ≤ 10 years) was “approximately 2 fold”, the “Circulating concentrations of sorafenib N-oxide, mean” value ([3]; children, sorafenib 200 mg/m^2) was 2 to 3 µM and the “Sorafenib N-oxide metabolite ratio” value ([3]; females, all ages) was 0.22±0.10. For the same molecule, the “CV% of sorafenib N-oxide metabolite ratio” value ([3]; girls greater than 10 years) was 20%, the “CV% of sorafenib N-oxide metabolite ratio” value ([3]; girls ≤ 10 years) was 59% and the “Sorafenib N-oxide metabolite ratio” value ([3]; girls ≤ 10 years) was 0.22±0.12. For the same molecule, the “Sorafenib N-oxide metabolite ratio” value ([3]; males older than 10 years) was 0.18±0.021, the “Sorafenib N-oxide metabolite ratio” value ([3]; males, all ages) was 0.26±0.15 and the “Rate of conversion of sorafenib to sorafenib N-oxide” value ([1]; adults with AML) was < 10%. The “Sorafenib N-oxide as share of circulating sorafenib concentrations” value ([1]; healthy subjects and cancer patients) was “approximately 10%”, the “Rate of conversion of sorafenib to sorafenib N-oxide” value ([1]; twelve children with relapsed/refractory AML) was 33% and the N-oxide metabolite ratio (first patient, day 383, concurrent oral voriconazole 150 mg twice daily) was 0.05. The N-oxide metabolite ratio (second patient, day 575, concurrent oral voriconazole 150 mg twice daily) was 0.05, the N-oxide metabolite ratio (second patient, day 607, concurrent oral voriconazole 150 mg twice daily) was 0.09 and the “Cytotoxic activity” value (AML cell lines) was “exhibited cytotoxic activity”. For the same molecule, the “Sorafenib N-oxide formation velocity, median” value ([4]; females) was −1.5 log[µM/min/mg HLM] and the “Sorafenib N-oxide formation velocity, median” value ([4]; males) was −1.1 log[µM/min/mg HLM].

For CNC(=O)c1cc(Oc2ccc(NC(=O)Nc3ccc(Cl)c(C(F)(F)F)c3)cc2)ccn1 [sorafenib, reference compound], the “Enzyme responsible for sorafenib glucuronidation” value (UGT1A9 [5]) was “UGT1A9 is primarily responsible for sorafenib glucuronidation”, the “CV% of steady-state sorafenib CL/F” value ([3]; all 30 patients) was 58% and the “Steady-state sorafenib apparent oral clearance (CL/F), mean±standard deviation” value ([3]; all 30 patients) was 64±37 mL/min/m^2.

For C[C@@H](c1ncncc1F)[C@](O)(Cn1cncn1)c1ccc(F)cc1F [voriconazole], the “Inhibition of sorafenib glucuronidation in vitro” value (UGT1A9 [2]) was “weak inhibitors of sorafenib glucuronidation”.

B1: UGT1A9 (Homo sapiens) (protein)
chain: T1 sequence (O60656 26-530)
Work on B1 yielded a Km (not read) of 3.6 ± 0.22 µM.
